Measured values from ChEMBL document CHEMBL1136921, “Benzylguanidines and other galegine analogues inducing weight loss in mice” (J Med Chem, 2009).

Key:
[1] = tested on: Mus musculus; assay: Antiobesity activity in high fat diet-induced obese BALB/c mouse model assessed as change in average daily body weight at 0.42 mmol/kg/day administered through diet for 28 days relative to time-matched control; type: functional
[2] = tested on: Mus musculus; assay: Antiobesity activity in high fat diet-induced obese BALB/c mouse model assessed as change in average daily food intake at 0.42 mmol/kg/day administered through diet for 28 days relative to time-matched control; type: functional
[3] = tested on: Mus musculus; assay: Antiobesity activity in ob/ob mouse model assessed as change in average daily food intake at 0.24 mmol/kg/day administered through diet for 28 days relative to time-matched control; type: functional
[4] = tested on: Mus musculus; assay: Antiobesity activity in lean normal BALB/c mouse assessed as change in average daily food intake at 0.59 mmol/kg/day administered through diet for 7 days relative to time-matched control; type: functional
[5] = tested on: Mus musculus; assay: Hypoglycemic activity in ob/ob mouse model assessed as blood glucose level at 0.24 mmol/kg/day administered through diet for 28 days relative to time-matched control; type: functional
[6] = tested on: Mus musculus; assay: Hypoglycemic activity in lean normal BALB/c mouse assessed as blood glucose level at 0.59 mmol/kg/day administered through diet for 7 days relative to time-matched control; type: functional
[7] = tested on: Mus musculus; assay: Toxicity in lean normal BALB/c mouse assessed as overt signs of behavioural changes at equimolar dose of 0.5 mmol/kg galegine administered daily through diet for 7 days; type: organism-based; details: in vivo, po, 168 h
[8] = tested on: Mus musculus; assay: Antiobesity activity in ob/ob mouse model assessed as change in average daily weight at 0.24 mmol/kg/day administered through diet for 28 days relative to time-matched control; type: functional
[9] = tested on: Mus musculus; assay: Antiobesity activity in lean normal BALB/c mouse assessed as change in average daily weight at 0.59 mmol/kg/day administered through diet for 7 days relative to time-matched control; type: functional
[10] = tested on: Mus musculus; assay: Hypoglycemic activity in high fat diet-induced obese BALB/c mouse model assessed as blood glucose level at 0.42 mmol/kg/day administered through diet for 28 days relative to time-matched control; type: functional
[11] = tested on: Mus musculus; assay: Antiobesity activity in high fat diet-induced obese BALB/c mouse model assessed as change in average daily food intake at 0.45 mmol/kg/day administered through diet for 28 days relative to time-matched control; type: functional
[12] = tested on: Mus musculus; assay: Antiobesity activity in lean normal BALB/c mouse assessed as change in average daily weight at 0.62 mmol/kg/day administered through diet for 7 days relative to time-matched control; type: functional
[13] = tested on: Mus musculus; assay: Hypoglycemic activity in high fat diet-induced obese BALB/c mouse model assessed as blood glucose level at 0.45 mmol/kg/day administered through diet for 28 days relative to time-matched control; type: functional
[14] = tested on: Mus musculus; assay: Antiobesity activity in ob/ob mouse model assessed as change in average daily food intake at 0.27 mmol/kg/day administered through diet for 28 days relative to time-matched control; type: functional
[15] = tested on: Mus musculus; assay: Hypoglycemic activity in lean normal BALB/c mouse assessed as blood glucose level at 0.62 mmol/kg/day administered through diet for 7 days relative to time-matched control; type: functional
[16] = tested on: Mus musculus; assay: Hypoglycemic activity in ob/ob mouse model assessed as blood glucose level at 0.27 mmol/kg/day administered through diet for 28 days relative to time-matched control; type: functional
[17] = tested on: Mus musculus; assay: Antiobesity activity in high fat diet-induced obese BALB/c mouse model assessed as change in average daily body weight at 0.45 mmol/kg/day administered through diet for 28 days relative to time-matched control; type: functional
[18] = tested on: Mus musculus; assay: Antiobesity activity in lean normal BALB/c mouse assessed as change in average daily food intake at 0.62 mmol/kg/day administered through diet for 7 days relative to time-matched control; type: functional
[19] = tested on: Mus musculus; assay: Antiobesity activity in ob/ob mouse model assessed as change in average daily weight at 0.27 mmol/kg/day administered through diet for 28 days relative to time-matched control; type: functional
[20] = tested on: Mus musculus; assay: Antiobesity activity in lean normal BALB/c mouse assessed as change in average daily food intake at 0.54 mmol/kg/day administered through diet for 7 days relative to time-matched control; type: functional
[21] = tested on: Mus musculus; assay: Antiobesity activity in high fat diet-induced obese BALB/c mouse model assessed as change in average daily food intake at 0.43 mmol/kg/day administered through diet for 28 days relative to time-matched control; type: functional
[22] = tested on: Mus musculus; assay: Antiobesity activity in lean normal BALB/c mouse assessed as change in average daily weight at 0.54 mmol/kg/day administered through diet for 7 days relative to time-matched control; type: functional
[23] = tested on: Mus musculus; assay: Hypoglycemic activity in lean normal BALB/c mouse assessed as blood glucose level at 0.54 mmol/kg/day administered through diet for 7 days relative to time-matched control; type: functional
[24] = tested on: Mus musculus; assay: Antiobesity activity in ob/ob mouse model assessed as change in average daily weight at 0.26 mmol/kg/day administered through diet for 28 days relative to time-matched control; type: functional
[25] = Metabolic stability in ob/ob mouse liver microsomes assessed as oxidative hydroxylation at 50 uM after 45 mins by HPLC-MS analysis; type: ADME, Microsome; details: 0.75 h
[26] = tested on: Mus musculus; assay: Hypoglycemic activity in ob/ob mouse model assessed as blood glucose level at 0.26 mmol/kg/day administered through diet for 28 days relative to time-matched control; type: functional
[27] = tested on: Mus musculus; assay: Antiobesity activity in high fat diet-induced obese BALB/c mouse model assessed as change in average daily body weight at 0.43 mmol/kg/day administered through diet for 28 days relative to time-matched control; type: functional
[28] = tested on: Mus musculus; assay: Hypoglycemic activity in high fat diet-induced obese BALB/c mouse model assessed as blood glucose level at 0.43 mmol/kg/day administered through diet for 28 days relative to time-matched control; type: functional
[29] = tested on: Mus musculus; assay: Antiobesity activity in ob/ob mouse model assessed as change in average daily food intake at 0.26 mmol/kg/day administered through diet for 28 days relative to time-matched control; type: functional

N=C(N)NCc1ccc(Cl)cc1 showed an Activity [1] of -7.3%, an Activity [2] of -15.6% and an Activity [3] of -38.5%. It also gave an Activity [4] of -34.7%, an Activity [5] of 71% and an Activity [6] of 59%. For the same molecule, the Activity [7] was “Non-toxic”, the Activity [8] was -11% and the Activity [9] was -19.7%. The Activity [10] was 94%.

In the case of N=C(N)NCc1ccc(F)cc1, the Activity [11] is reported as -9.8%, the Activity [12] is reported as -14.7% and the Activity [13] is reported as 93%. The Activity [14] was -26.8%, the Activity [15] was 56% and the Activity [7] was “Non-toxic”. It also gave an Activity [16] of 102%, an Activity [17] of -7.8% and an Activity [18] of -27.8%. It also gave an Activity [19] of -8.7%.

In the case of N=C(N)NCc1ccccc1, the Activity [20] is reported as -28.1%, the Activity [21] is reported as -14.9% and the Activity [22] is reported as -10.4%. The Activity [23] was 60%, the Activity [24] was -6.8% and the Activity [7] was “Non-toxic”. For the same molecule, the Activity [25] was “Stable”, the Activity [26] was 82% and the Activity [27] was -10.6%. The Activity [28] was 90% and the Activity [29] was -29.3%.
